Source: patent US5024839A, “Dactylocycline A and dactylocycline B” (E. R. Squibb & Sons, Inc., priority 1987, dated 1991)
Converted amounts (≈) assume the structure as drawn.

What was measured:
Type in all cases: cell-based
[1] = system: Staphylococcus aureus SC10016; assay: MIC (agar dilution, K-10 agar)
Method: (§1) The following methodology was used to determine the minimum inhibitory concentration (hereinafter referred to as MIC) of the compounds of this invention. The test organisms were grown in 20 ml of Antibiotic Assay Broth (Difco) by inoculating the broth (in tubes) with a loopful of the organism from a BHI (Difco) agar slant. The inoculated tubes were incubated at 37° C. for 18 to 24 hours. These cultures are assumed to contain 10^9 colony forming units (CFU) per ml. The cultures were diluted 1:100 to give a final inoculum level of 10^7 CFU; dilutions were made with Yeast Beef Broth (Difco). The test compounds were dissolved in an appropriate diluent at a concentration of 1,000 μg/ml. Two-fold dilutions were made in Yeast Beef Broth (Difco) resulting in a range from 1000 μg/ml to 0.5 μg/ml. A 1.5 ml portion of each dilution was placed into individual petri dishes to which 13.5 ml of K-10 agar was added. The composition of K-10 agar is:
(§2) The final drug concentration in the agar ranged from 100 μg/ml to 0.05 μg/ml. Organism growth control plates containing agar only were prepared and inoculated before and after the test plates. The organisms were applied to agar surface of each plate with a Denly Multipoint Inoculator, which delivers approximately 10^4 CFU on the agar surface.
(§3) The plates were incubated at 37° C. for 18 hours and the MICs determined. The MIC is the lowest concentration of compound inhibiting growth of the organism.
(§4) The test organisms chosen for this study are pairs of tetracycline-sensitive and tetracycline-resistant strains.

[2] = system: Staphylococcus aureus SC2399; assay: MIC (agar dilution, K-10 agar)
Method: as §1, §2, §3, §4

[3] = system: Staphylococcus aureus SGB 42; assay: MIC (agar dilution, K-10 agar)
Method: as §1, §2, §3, §4

[4] = system: Staphylococcus aureus SGB 45; assay: MIC (agar dilution, K-10 agar)
Method: as §1, §2, §3, §4

[5] = system: Staphylococcus epidermidis SC9052; assay: MIC (agar dilution, K-10 agar)
Method: as §1, §2, §3, §4

[6] = system: Staphylococcus epidermidis SC9087; assay: MIC (agar dilution, K-10 agar)
Method: as §1, §2, §3, §4

[7] = system: Streptococcus faecalis SC9011; assay: MIC (agar dilution, K-10 agar)
Method: as §1, §2, §3, §4

[8] = system: Streptococcus faecalis SC9776; assay: MIC (agar dilution, K-10 agar)
Method: as §1, §2, §3, §4

[9] = system: gram-positive bacteria, including tetracycline-resistant bacteria; assay: Activity against gram-positive bacteria
Method: as §1, §2
The plates were incubated at 37° C. for 18 hours and the MICs determined. […]

[10] = Staphylococcus aureus SC10016, K-10 agar, approximately 10^4 CFU, 37° C., 18 hours
[11] = Staphylococcus aureus SC2399, K-10 agar, approximately 10^4 CFU, 37° C., 18 hours
[12] = Staphylococcus aureus SGB 42, K-10 agar, approximately 10^4 CFU, 37° C., 18 hours
[13] = Staphylococcus aureus SGB 45, K-10 agar, approximately 10^4 CFU, 37° C., 18 hours
[14] = Staphylococcus epidermidis SC9052, K-10 agar, approximately 10^4 CFU, 37° C., 18 hours
[15] = Staphylococcus epidermidis SC9087, K-10 agar, approximately 10^4 CFU, 37° C., 18 hours
[16] = Streptococcus faecalis SC9011, K-10 agar, approximately 10^4 CFU, 37° C., 18 hours
[17] = Streptococcus faecalis SC9776, K-10 agar, approximately 10^4 CFU, 37° C., 18 hours

What does the source list for `COc1cc(O)c2c(c1Cl)[C@](C)(O[C@H]1C[C@](C)(NO)[C@@H](OC)[C@H](C)O1)[C@H]1C[C@@]3(O)[C@H](N(C)C)C(=O)C(C(N)=O)=C(O)[C@@]3(O)C(=O)C1=C2O` [Dactylocycline A]?
MIC [1, 10]: 6.3 µg/mL (≈ 9.02 µM); MIC [2, 11]: 1.6 µg/mL (≈ 2.29 µM); MIC [3, 12]: 1.6 µg/mL (≈ 2.29 µM); MIC [4, 13]: 3.1 µg/mL (≈ 4.44 µM); MIC [5, 14]: 6.3 µg/mL (≈ 9.02 µM); MIC [6, 15]: 3.1 µg/mL (≈ 4.44 µM); MIC [7, 16]: 25 µg/mL (≈ 35.8 µM); MIC [8, 17]: 25 µg/mL (≈ 35.8 µM); activity against gram-positive bacteria [9]: active against gram-positive bacteria, including tetracycline-resistant bacteria

With `COc1cc(O)c2c(c1Cl)C(C)(OC1CC(C)([N+](=O)[O-])C(OC)C(C)O1)C1CC3(O)C(N(C)C)C(=O)C(C(N)=O)=C(O)C3(O)C(=O)C1=C2O` (centres unmarked) [Dactylocycline B] as the compound, how does the MIC [1, 10] read?
Its MIC is 3.1 µg/mL (≈ 4.35 µM).

And the MIC [2, 11]?
Its MIC is 6.3 µg/mL (≈ 8.85 µM).

And the MIC [3, 12]?
Its MIC is 3.1 µg/mL (≈ 4.35 µM).

What about the MIC [4, 13] of the same compound?
The MIC was 3.1 µg/mL (≈ 4.35 µM).

And the MIC [5, 14]?
The MIC was 3.1 µg/mL (≈ 4.35 µM).

And the MIC [6, 15]?
The MIC was 3.1 µg/mL (≈ 4.35 µM).

And the MIC [7, 16]?
The MIC was 6.3 µg/mL (≈ 8.85 µM).

And the MIC [8, 17]?
The MIC was 6.3 µg/mL (≈ 8.85 µM).

What about the “activity against gram-positive bacteria” value [9] of the same compound?
Its value is “active against gram-positive bacteria, including tetracycline-resistant bacteria”.

What does the source list for `CN(C)[C@@H]1C(O)=C(C(N)=O)C(=O)[C@@]2(O)C(O)=C3C(=O)c4c(O)cccc4[C@@](C)(O)[C@H]3C[C@@H]12` [Tetracycline, reference compound]?
MIC ([1]; Staphylococcus aureus, SC10016, 18 h): 100 µg/mL (≈ 225 µM); MIC ([2]; Staphylococcus aureus, SC2399, 18 h): 0.4 µg/mL (≈ 0.9 µM); MIC ([3]; Staphylococcus aureus, SGB42, 18 h): 0.2 µg/mL (≈ 0.45 µM); MIC ([4]; Staphylococcus aureus, SGB45, 18 h): 100 µg/mL (≈ 225 µM); MIC ([5]; Staphylococcus epidermidis, SC9052, 18 h): 0.8 µg/mL (≈ 1.8 µM); MIC ([6]; Staphylococcus epidermidis, SC9087, 18 h): 50 µg/mL (≈ 113 µM); MIC ([7]; Enterococcus faecalis, SC9011, 18 h): 1.6 µg/mL (≈ 3.6 µM); MIC ([8]; Enterococcus faecalis, SC9776, 18 h): > 100 µg/mL
